# Reference: patent US20230085307A1, “PYRIDAZINONE COMPOUND AND HERBICIDE” (NISSAN CHEMICAL CORPORATION, priority 2019, published 2023)
# Tested on: persian speedwell
# Experiment: Test Example 4: herbicidal effect by soil treatment (Table 19, symbol R)
# Assay type: in vivo, Persian speedwell (Veronica persica)
# Conditions: amount of applied herbicide 320 g/ha
# How it was run: (§1)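 Emulsion of test compound, water-diluted to predetermined amount, sprayed on soil after sowing (seed depth ~1.5 cm, sterilized diluvial soil). Greenhouse, 25–30° C. Effect graded at three weeks post-spray.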
row,SMILES,"herbicidal effect rating, R: persian speedwell"
1,CCCOc1ccccc1-c1sc2ccccc2c1-c1c(O)c(C)nn(C)c1=O [1-015],4 (Herbicidal rate of 70% or more and less than 90%)
2,CCCCCOc1ccc(-c2sc3ccccc3c2-c2c(O)c(C)nn(C)c2=O)cc1 [1-026],3 (Herbicidal rate of 40% or more and less than 70%)

# Tested on: green foxtail
# Experiment: Test Example 4: herbicidal effect by soil treatment (Table 19, symbol G)
# Assay type: in vivo, green foxtail (Setaria viridis)
# Conditions: amount of applied herbicide 320 g/ha
# How it was run: as §1
row,SMILES,"herbicidal effect rating, G: green foxtail"
1,CCCOc1ccccc1-c1sc2ccccc2c1-c1c(O)c(C)nn(C)c1=O [1-015],4 (Herbicidal rate of 70% or more and less than 90%)
2,CCCCCOc1ccc(-c2sc3ccccc3c2-c2c(O)c(C)nn(C)c2=O)cc1 [1-026],0 (Herbicidal rate of 5% or less (almost no effect))

# Tested on: Japanese bulrush
# Experiment: Test Example 2: herbicidal activity, application during weed generation under submerged conditions (Table 17, symbol B)
# Assay type: in vivo, Japanese bulrush (Schoenoplectus juncoides)
# Conditions: AAH 320 g/ha; application during weed generation, submerged conditions
# How it was run: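 In this pot test, flooded alluvial soil (water depth 4 cm) holds all three species sown as a mixture. Once seedlings have one to two leaves, the compound's emulsion, thinned with water to the intended dose, is poured on the water; grading follows after three weeks on the earlier criteria.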
row,SMILES,"herbicidal effect rating, B: Japanese bulrush"
1,CCCOc1ccccc1-c1sc2ccccc2c1-c1c(O)c(C)nn(C)c1=O [1-015],1 (Herbicidal rate of 5% or more and less than 20%)
2,CCCCCOc1ccc(-c2sc3ccccc3c2-c2c(O)c(C)nn(C)c2=O)cc1 [1-026],3 (Herbicidal rate of 40% or more and less than 70%)

# Tested on: barnyard grass
# Experiment: Test Example 4: herbicidal effect by soil treatment (Table 19, symbol H)
# Assay type: in vivo, barnyard grass (Echinochloa crus-galli)
# Conditions: amount of applied herbicide 320 g/ha
# How it was run: as §1
row,SMILES,"herbicidal effect rating, H: barnyard grass"
1,CCCOc1ccccc1-c1sc2ccccc2c1-c1c(O)c(C)nn(C)c1=O [1-015],4 (Herbicidal rate of 70% or more and less than 90%)
2,CCCCCOc1ccc(-c2sc3ccccc3c2-c2c(O)c(C)nn(C)c2=O)cc1 [1-026],0 (Herbicidal rate of 5% or less (almost no effect))

# Tested on: chickweed
# Experiment: Test Example 5: herbicidal effect by foliage application, plastic box (Table 20, symbol P)
# Assay type: in vivo, common chickweed (Stellaria media)
# Conditions: foliage application, 320 g/ha, three weeks after application
# How it was run: (§2)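 Post-emergence foliar test in sterilized diluvial soil. Compound applied as water-diluted emulsion at a predetermined rate to 14-day-old plants; evaluation at three weeks.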
row,SMILES,"herbicidal effect grade, P: chickweed"
1,CCCOc1ccccc1-c1sc2ccccc2c1-c1c(O)c(C)nn(C)c1=O [1-015],5 (Herbicidal rate of 90% or more (almost completely withered))
2,CCCCCOc1ccc(-c2sc3ccccc3c2-c2c(O)c(C)nn(C)c2=O)cc1 [1-026],5 (Herbicidal rate of 90% or more (almost completely withered))

# Tested on: wild oat
# Experiment: Test Example 4: herbicidal effect by soil treatment (Table 19, symbol I)
# Assay type: in vivo, wild oat (Avena fatua)
# Conditions: amount of applied herbicide 320 g/ha
# How it was run: as §1
row,SMILES,"herbicidal effect rating, I: wild oat"
1,CCCOc1ccccc1-c1sc2ccccc2c1-c1c(O)c(C)nn(C)c1=O [1-015],0 (Herbicidal rate of 5% or less (almost no effect))
2,CCCCCOc1ccc(-c2sc3ccccc3c2-c2c(O)c(C)nn(C)c2=O)cc1 [1-026],0 (Herbicidal rate of 5% or less (almost no effect))

# Tested on: chickweed
# Experiment: Test Example 4: herbicidal effect by soil treatment (Table 19, symbol P)
# Assay type: in vivo, common chickweed (Stellaria media)
# Conditions: amount of applied herbicide 320 g/ha
# How it was run: as §1
row,SMILES,"herbicidal effect rating, P: chickweed"
1,CCCOc1ccccc1-c1sc2ccccc2c1-c1c(O)c(C)nn(C)c1=O [1-015],3 (Herbicidal rate of 40% or more and less than 70%)
2,CCCCCOc1ccc(-c2sc3ccccc3c2-c2c(O)c(C)nn(C)c2=O)cc1 [1-026],2 (Herbicidal rate of 20% or more and less than 40%)

# Tested on: redroot pigweed
# Experiment: Test Example 5: herbicidal effect by foliage application, plastic box (Table 20, symbol N)
# Assay type: in vivo, redroot pigweed (Amaranthus retroflexus)
# Conditions: foliage application, 320 g/ha, three weeks after application
# How it was run: as §2
row,SMILES,"herbicidal effect grade, N: redroot pigweed"
1,CCCOc1ccccc1-c1sc2ccccc2c1-c1c(O)c(C)nn(C)c1=O [1-015],3 (Herbicidal rate of 40% or more and less than 70%)
2,CCCCCOc1ccc(-c2sc3ccccc3c2-c2c(O)c(C)nn(C)c2=O)cc1 [1-026],5 (Herbicidal rate of 90% or more (almost completely withered))

# Tested on: lambsquarters
# Experiment: Test Example 4: herbicidal effect by soil treatment (Table 19, symbol O)
# Assay type: in vivo, lambsquarters (Chenopodium album)
# Conditions: amount of applied herbicide 320 g/ha
# How it was run: as §1
row,SMILES,"herbicidal effect rating, O: lambsquarters"
1,CCCOc1ccccc1-c1sc2ccccc2c1-c1c(O)c(C)nn(C)c1=O [1-015],0 (Herbicidal rate of 5% or less (almost no effect))
2,CCCCCOc1ccc(-c2sc3ccccc3c2-c2c(O)c(C)nn(C)c2=O)cc1 [1-026],0 (Herbicidal rate of 5% or less (almost no effect))

# Tested on: velvetleaf
# Experiment: Test Example 5: herbicidal effect by foliage application, plastic box (Table 20, symbol M)
# Assay type: in vivo, velvetleaf (Abutilon theophrasti)
# Conditions: foliage application, 320 g/ha, three weeks after application
# How it was run: as §2
row,SMILES,"herbicidal effect grade, M: velvetleaf"
1,CCCOc1ccccc1-c1sc2ccccc2c1-c1c(O)c(C)nn(C)c1=O [1-015],5 (Herbicidal rate of 90% or more (almost completely withered))
2,CCCCCOc1ccc(-c2sc3ccccc3c2-c2c(O)c(C)nn(C)c2=O)cc1 [1-026],5 (Herbicidal rate of 90% or more (almost completely withered))

# Tested on: southern crabgrass
# Experiment: Test Example 4: herbicidal effect by soil treatment (Table 19, symbol F)
# Assay type: in vivo, southern crabgrass (Digitaria ciliaris)
# Conditions: amount of applied herbicide 320 g/ha
# How it was run: as §1
row,SMILES,"herbicidal effect rating, F: southern crabgrass"
1,CCCOc1ccccc1-c1sc2ccccc2c1-c1c(O)c(C)nn(C)c1=O [1-015],3 (Herbicidal rate of 40% or more and less than 70%)
2,CCCCCOc1ccc(-c2sc3ccccc3c2-c2c(O)c(C)nn(C)c2=O)cc1 [1-026],0 (Herbicidal rate of 5% or less (almost no effect))

# Tested on: Italian ryegrass
# Experiment: Test Example 5: herbicidal effect by foliage application, plastic box (Table 20, symbol K)
# Assay type: in vivo, Italian ryegrass (Lolium multiflorum)
# Conditions: foliage application, 320 g/ha, three weeks after application
# How it was run: as §2
row,SMILES,"herbicidal effect grade, K: Italian ryegrass"
1,CCCOc1ccccc1-c1sc2ccccc2c1-c1c(O)c(C)nn(C)c1=O [1-015],4 (Herbicidal rate of 70% or more and less than 90%)
2,CCCCCOc1ccc(-c2sc3ccccc3c2-c2c(O)c(C)nn(C)c2=O)cc1 [1-026],2 (Herbicidal rate of 20% or more and less than 40%)

# Tested on: windgrass
# Experiment: Test Example 5: herbicidal effect by foliage application, plastic box (Table 20, symbol L)
# Assay type: in vivo, windgrass (Apera spica-venti)
# Conditions: foliage application, 320 g/ha, three weeks after application
# How it was run: as §2
row,SMILES,"herbicidal effect grade, L: windgrass"
1,CCCOc1ccccc1-c1sc2ccccc2c1-c1c(O)c(C)nn(C)c1=O [1-015],5 (Herbicidal rate of 90% or more (almost completely withered))
2,CCCCCOc1ccc(-c2sc3ccccc3c2-c2c(O)c(C)nn(C)c2=O)cc1 [1-026],4 (Herbicidal rate of 70% or more and less than 90%)

# Tested on: oval-leafed pondweed
# Experiment: Test Example 1: herbicidal activity, application before weed generation under submerged conditions (Table 16, symbol C)
# Assay type: in vivo, oval-leafed pondweed (Monochoria vaginalis)
# Conditions: 320 g/ha applied herbicide
# How it was run: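 Alluvial soil was flooded to 4 cm depth, weed seeds were sown mixed and 2.5-leaf rice seedlings were transplanted. On sowing day, the compound's emulsion, diluted in water to a set dose, was applied to the water surface. Plants grew at 25–30 °C and were scored 0–5 after three weeks.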
row,SMILES,Herbicidal effect on C: oval-leafed pondweed (grade 0-5)
1,CCCOc1ccccc1-c1sc2ccccc2c1-c1c(O)c(C)nn(C)c1=O [1-015],3 (Herbicidal rate of 40% or more and less than 70%)
2,CCCCCOc1ccc(-c2sc3ccccc3c2-c2c(O)c(C)nn(C)c2=O)cc1 [1-026],1 (Herbicidal rate of 5% or more and less than 20%)

# Tested on: blackgrass
# Experiment: Test Example 4: herbicidal effect by soil treatment (Table 19, symbol J)
# Assay type: in vivo, blackgrass (Alopecurus myosuroides)
# Conditions: amount of applied herbicide 320 g/ha
# How it was run: as §1
row,SMILES,"herbicidal effect rating, J: blackgrass"
1,CCCOc1ccccc1-c1sc2ccccc2c1-c1c(O)c(C)nn(C)c1=O [1-015],4 (Herbicidal rate of 70% or more and less than 90%)
2,CCCCCOc1ccc(-c2sc3ccccc3c2-c2c(O)c(C)nn(C)c2=O)cc1 [1-026],0 (Herbicidal rate of 5% or less (almost no effect))

# Tested on: lambsquarters
# Experiment: Test Example 5: herbicidal effect by foliage application, plastic box (Table 20, symbol O)
# Assay type: in vivo, lambsquarters (Chenopodium album)
# Conditions: foliage application, 320 g/ha, three weeks after application
# How it was run: as §2
row,SMILES,"herbicidal effect grade, O: lambsquarters"
1,CCCOc1ccccc1-c1sc2ccccc2c1-c1c(O)c(C)nn(C)c1=O [1-015],0 (Herbicidal rate of 5% or less (almost no effect))
2,CCCCCOc1ccc(-c2sc3ccccc3c2-c2c(O)c(C)nn(C)c2=O)cc1 [1-026],0 (Herbicidal rate of 5% or less (almost no effect))

# Tested on: velvetleaf
# Experiment: Test Example 4: herbicidal effect by soil treatment (Table 19, symbol M)
# Assay type: in vivo, velvetleaf (Abutilon theophrasti)
# Conditions: amount of applied herbicide 320 g/ha
# How it was run: as §1
row,SMILES,"herbicidal effect rating, M: velvetleaf"
1,CCCOc1ccccc1-c1sc2ccccc2c1-c1c(O)c(C)nn(C)c1=O [1-015],0 (Herbicidal rate of 5% or less (almost no effect))
2,CCCCCOc1ccc(-c2sc3ccccc3c2-c2c(O)c(C)nn(C)c2=O)cc1 [1-026],0 (Herbicidal rate of 5% or less (almost no effect))
